Where two headings read alike, the source gives them in different places.
Legend:
Assay in all cases: Broth two-fold serial dilution MIC test
Pseudomonas aeruginosa = type: cell-based, Pseudomonas aeruginosa (ATCC 15442); settings: Psae
Excerpt: (§1) A minimum inhibitory concentration (MIC) value is obtained using a broth, two-fold serial dilution test performed as follows: A stock solution or dispersion of the test compound, typically at a concentration of 1%, is made in a 5:3:2 solvent solution of acetone. methanol, and water. A volume of the stock solution is dispensed into culture media to give an initial starting test concentration of 500 ppm compound.
(§2) When the test is ready to be done, each vessel in the dilution series, except the first vessel, contains an equal volume of compound free broth. The first vessel contains twice the volume of broth with the starting concentration of test compound. One half of the broth from the first vessel is transferred to the second vessel- After being mixed, one half the resulting volume is removed from the second vessel and transferred to the third vessel. The entire cycle is repeated sufficiently to give a series of concentrations amounting to 500, 250, 125, 63, 31, 16, 8, and 4, 2, 1, 0.5, 0.25 ppm respectively.
(§3) Each vessel is then inoculated with a cell suspension of the appropriate test organism. Bacteria are grown in broth, fungi on agar slants for a time and at a temperature appropriate to the species being tested, and algae are a mixture of green algae and blue-green bacteria grown in a nutrient media. At the end of the growth period, in the case of bacteria, the broth is vortexed to disperse the cells.
(§4) In the case of fungi, the spores are harvested by pipetting water onto the slant and dislodging the spores with a sterile loop. The cell/spore suspension is standardized by controlling incubation time, temperature, and the volume of the diluent. The suspension is then used to inoculate the vessels containing the broth compound.
(§5) The vessels are then incubated at the appropriate temperature. After the incubation, the vessels are examined for growth/no growth. The minimum inhibitory concentration (MIC) is defined as the lowest concentration of compound that results in complete inhibition of growth of the test organism.
1. Pseudomonas aeruginosa

Escherichia coli = type: cell-based, Escherichia coli (ATCC 11229); settings: Ecol
Excerpt: as §1, §2, §3, §4, §5

Staphylococcus aureus = type: cell-based, Staphylococcus aureus (ATCC 6538); settings: Saur
Excerpt: as §1, §2, §3, §4, §5
2. Staphylococcus aureus

Aspergillus niger = type: cell-based, Aspergillus niger (ATCC 6275); settings: Anig, TSB media
Excerpt: as §1, §2, §3, §4, §5
4. Aspergillus niger 6275 Anig

[1] = Pseudomonas aeruginosa, Table 2, M9G media, read-out: MIC
[2] = Pseudomonas aeruginosa, Table 2, TSB media, read-out: MIC
[3] = Escherichia coli, Table 2, M9G media, read-out: MIC
[4] = Escherichia coli, Table 2, TSB media, read-out: MIC
[5] = Staphylococcus aureus, Table 2, M9G media, read-out: MIC
[6] = Staphylococcus aureus, Table 2, TSB media, read-out: MIC
[7] = Aspergillus niger, Table 2, read-out: MIC

Row | MIC (Pseudomonas aeruginosa; Table 2, TSB media) [ppm] | MIC (Escherichia coli; Table 2, M9G media) [ppm] | MIC (Escherichia coli; Table 2, TSB media) [ppm] | MIC (Staphylococcus aureus; Table 2, M9G media) [ppm] | MIC (Staphylococcus aureus; Table 2, TSB media) [ppm] | MIC (Aspergillus niger; Table 2) [ppm] | MIC (Pseudomonas aeruginosa; [1]) [µg/mL] | MIC (Pseudomonas aeruginosa; [2]) [µg/mL] | MIC (Escherichia coli; [3]) [µg/mL] | MIC (Escherichia coli; [4]) [µg/mL] | MIC (Staphylococcus aureus; [5]) [µg/mL] | MIC (Staphylococcus aureus; [6]) [µg/mL] | MIC (Aspergillus niger; [7]) [µg/mL] | SMILES | further results
1 | > 500 | 16 | 32 | 2 | 8 | 32 | – | – | – | – | – | – | – | CCCCCCOC(=O)CCCCC[N+]1(CC#CI)CCCC1 [Compound 84, 1-[5-(hexyloxycarbonyl)]pentyl-1-(3-iodopropargyl)-pyrrolidinium methanesulfonate] | MIC (Pseudomonas aeruginosa; Table 2, M9G media): > 500 ppm
2 | – | – | – | – | – | – | 250 | 500 | 16 | 32 | 8 | 16 | 16 | CCCCCCCCCCOC(=O)CC[N+]1(CC#CI)CCCC1 [Compound 97, 1-[2-(decyloxycarbonyl)]ethyl-1-(3-iodopropargyl)-pyrrolidinium 4-methylbenzenesulfonate] | –
3 | – | – | – | – | – | – | 8 | 32 | 2 | 4 | 0.25 | 0.25 | 4 | CCCCCCCCCCCCCCC[N+]1(CC#CI)CCOCC1 [Compound 88, 4-pentadecyl-4-(3-iodopropargyl)-morpholinium methanesulfonate] | –
4 | 64 | 2 | 4 | 0.25 | 0.25 | 4 | – | – | – | – | – | – | – | CCCCCCCCCCCCCC[N+]1(CC#CI)CCCC1 [Compound 87, 1.-tetradecyl-1-(3-iodopropargyl)-pyrrolidinium n-butylsulfonate] | MIC (Pseudomonas aeruginosa; Table 2, M9G media): 16 ppm
5 | – | – | – | – | – | – | 64 | 250 | 2 | 8 | 0.5 | 8 | 125 | CCCCCCCCCCOC(=O)C[N+]1(CC#CI)CCOCC1 [Compound 66, 4-(decyioxycarbonyl)methyl-4-(3-iodopropargyl)-morpholiniurn 4methylbenzenesulfonate] | –
6 | – | – | – | – | – | – | > 500 | > 500 | 125 | 125 | > 500 | > 500 | 500 | CCCC[N+]1(CC#CI)CCOCC1 [Compound 93, 4-n-butyl-4-(3-iodopropargyl)-morpholinium methanesulfonate] | –

Continued, compound first:

Row | SMILES | MIC (Pseudomonas aeruginosa; Table 2, TSB media) [ppm] | MIC (Escherichia coli; Table 2, M9G media) [ppm] | MIC (Escherichia coli; Table 2, TSB media) [ppm] | MIC (Staphylococcus aureus; Table 2, M9G media) [ppm] | MIC (Staphylococcus aureus; Table 2, TSB media) [ppm] | MIC (Aspergillus niger; Table 2) [ppm] | MIC (Pseudomonas aeruginosa; [1]) [µg/mL] | MIC (Pseudomonas aeruginosa; [2]) [µg/mL] | MIC (Escherichia coli; [3]) [µg/mL] | MIC (Escherichia coli; [4]) [µg/mL] | MIC (Staphylococcus aureus; [5]) [µg/mL] | MIC (Staphylococcus aureus; [6]) [µg/mL] | MIC (Aspergillus niger; [7]) [µg/mL] | further results
7 | CCCCCCCCCCCCCCCC[N+]1(CC#CI)CCOCC1 [Compound 50, 4-hexadecyl-4-(3-iodopropargyl)-morpholinium benzenesulfonate] | 8 | 1 | 1 | < 0.25 | 0.5 | 0.5 | – | – | – | – | – | – | – | MIC (Pseudomonas aeruginosa; Table 2, M9G media): 8 ppm
8 | CCCCCCCCCCCCCCCC[N+]1(CC#CI)CCCCCC1 [Compound 44, 1-hexadecyl-1-(3-iodopropargyl)-hexamethyleneiminium 4-methylbenzenesulfonate] | – | – | – | – | – | – | 8 | 8 | 8 | 16 | 8 | 4 | 8 | –
9 | CCCCCCCCCCCCCC[N+]1(CC#CI)CCCC1 [Compound 34, 1-tetradecyl-1-(3-iodopropargyl)-pyrrolidinium benzenesulfonate] | 2 | 0.25 | 0.25 | < 0.25 | < 0.25 | 0.25 | – | – | – | – | – | – | – | MIC (Pseudomonas aeruginosa; Table 2, M9G media): 2 ppm; MIC (Pseudomonas aeruginosa; Table 3 comparison, M9G media): 2 ppm; MIC (Pseudomonas aeruginosa; Table 3 comparison, TSB media): 2 ppm; MIC (Escherichia coli; Table 3 comparison, M9G media): 0.25 ppm; MIC (Escherichia coli; Table 3 comparison, TSB media): 0.25 ppm; MIC (Staphylococcus aureus; Table 3 comparison, M9G media): < 0.25 ppm; MIC (Staphylococcus aureus; Table 3 comparison, TSB media): < 0.25 ppm; MIC (Aspergillus niger; Table 3 comparison): 0.25 ppm
10 | C[N+]1(CC#CI)CCCCC1 [Compound 17, 1-Methyl-1-(3-Iodopropargyl)-Piperidinium 4-Methylbenzenesulfonate] | – | – | – | – | – | – | 250 | 125 | – | 250 | 32 | 32 | 125 | MIC (Pseudomonas aeruginosa; Pseudomonas aeruginosa, Table 3 comparison, M9G media, read-out: MIC): 250 µg/mL; MIC (Pseudomonas aeruginosa; Pseudomonas aeruginosa, Table 3 comparison, TSB media, read-out: MIC): 125 µg/mL; MIC (Escherichia coli; Escherichia coli, Table 3 comparison, TSB media, read-out: MIC): 250 µg/mL; MIC (Staphylococcus aureus; Staphylococcus aureus, Table 3 comparison, M9G media, read-out: MIC): 32 µg/mL; MIC (Staphylococcus aureus; Staphylococcus aureus, Table 3 comparison, TSB media, read-out: MIC): 32 µg/mL; MIC (Aspergillus niger; Aspergillus niger, Table 3 comparison, read-out: MIC): 125 µg/mL
11 | OCC[N+]1(CC#CI)CCCC1 [Compound 1, 1-(2-hydroxyethyl)-1-(3-iodopropargyl)-pyrrolidinium 4-methylbenzenesulfonate] | – | – | – | – | – | – | > 250 | 125 | – | > 250 | 16 | 32 | > 250 | –
12 | CCCCCCCCCCCC[N+]1(CC#CI)CCCC1 [Compound 13, 1-dodecyl-1-(3-iodopropargyl)-pyrrolidinium 4-methylbenzenesulfonate] | 250 | 32 | 32 | 1 | 16 | 16 | 32 | – | – | – | – | – | – | –
13 | OCCCCCCC[N+]1(CC#CI)CCCCC1 [Compound 24, 1-(7-hydroxyheptyl)-1-(3-iodopropargyl)-piperidinium-4methylbenzenesulfonate] | – | – | – | – | – | – | > 500 | > 500 | – | > 500 | 63 | 500 | > 500 | –
14 | C[N+]1(CC#CI)CCOCC1 [Compound 29, 4-methyl-4-(3-iodopropargl)-morpholinium 4-methylbenzenesulfonate] | – | – | – | – | – | – | 500 | 500 | 250 | 125 | 500 | 500 | 500 | –
15 | CCCCCCCCCCCCC[N+]1(CC#CI)CCCC1 [Compound 36, 1-tridecyl-1-(3-iodopropargyl)-pyrrolidinium methanesulfonate] | 63 | 2 | 8 | < 0.25 | < 0.25 | 1 | – | – | – | – | – | – | – | MIC (Pseudomonas aeruginosa; Table 2, M9G media): 32 ppm
16 | OCCCCCCCCC[N+]1(CC#CI)CCCCC1 [Compound 21, 1-(9-hydroxynonyl)-1-(3-iodopropargyl)-piperidinium 4-methylbenzenesulfonate] | – | – | – | – | – | – | > 250 | > 250 | – | > 250 | > 250 | > 250 | 63 | –
17 | CCCCCCCCCCOC(=O)C[N+]1(CC#CI)CCCC1 [Compound 65, 1-(decyioxycarbonyl)methyl-1-(3-iodopropargyl)-pyrrolidinium 4methylbenzenesulfonate] | – | – | – | – | – | – | 64 | 125 | 2 | 4 | 2 | 1 | 16 | –
18 | CCCCCCCCCCCCCC[N+]1(CC#CI)CCC(C)CC1 (stereo not drawn) [Compound 52, 1-(tetradecyl)-1-(3-iodopropargyl)-4-methylpiperidinium benzenesulfonate] | – | – | – | – | – | – | 16 | 16 | 8 | 2 | < 0.25 | < 0.25 | < 0.25 | –
19 | CCCCCCCCCCCCCC[N+]1(CC#CI)CCNC1.O=S(=O)([O-])c1ccccc1 (stereo not drawn) [Compound 58, 3-(tetradecyt)-3-(3-iodopropargyl)-imidazolidinium benzenesulfonate] | > 500 | 4 | 8 | 0.5 | 4 | 8 | – | – | – | – | – | – | – | MIC (Pseudomonas aeruginosa; Table 2, M9G media): 125 ppm
20 | CCCCCCCCCC[N+]1(CC#CI)CCCC1 [Compound 11] | – | 16 | 32 | 2 | 16 | – | 250 | 500 | – | – | – | – | 4 | –
21 | OCCCCCCCCC[N+]1(CC#CI)CCCC1 [Compound 5, 1-(9-hydroxynonyl)-1-(3-iodopropargyl)-pyrrolidinium 4-methylbenzenesulfonate] | – | – | – | – | – | – | > 500 | > 500 | > 500 | > 500 | 63 | 63 | 250 | –

Reference: patent US5354862A, “Preparation and the use of halopropargylated cyclic quaternary ammonium compounds as antimicrobial agents” (Rohm and Haas Company, priority 1993, dated 1994)
